From patent US20150344457A1, “METHODS OF INHIBITING PRMT5” (EPIZYME, INC., priority 2012, published 2015)

What was measured:
[1] = test system: Z-138 cells; experiment: Z-138 Methylation Assay (In Cell Western for symmetric di-methyl arginine and DNA content); type: cell-based; details: Homo sapiens, Table D-2, read-out: ICW EC50
How it was run: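 Symmetric di-methyl arginine signal (800 nm) ratioed to DNA content (700 nm) by In Cell Western after four days of compound treatment of Z-138 suspension cells seeded at 50,000 cells/mL. Percent inhibition set between DMSO and 3 μM reference wells; IC50 curves from triplicates.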

[2] = test system: Z-138 cells; experiment: Z-138 Proliferation Assay (Cell Titer Glo, 5 days); type: cell-based; details: Homo sapiens, Table D-2
How it was run: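 Exponentially growing Z-138 cells (10,000 cells/ml) in RPMI 1640 with 10% FBS are exposed to nine-point 3-fold dilutions (final top concentration 20 μM, 0.2% DMSO) for 5 days at 37° C. Viability is measured as ATP by CellTiter-Glo luminescence. The 50% inhibitory concentration comes from a 4-parameter fit.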

| SMILES | EC50 [1] [nM] | EC50 [2] [nM] |
| --- | --- | --- |
| OC(CNc1cc(-c2ccc3ncn(C4CCNC4)c3c2)ccn1)CN1CCc2ccccc2C1 (stereo not drawn) [Compound D240] | 101 to 1000 | 1000 to 10000 |
| OC(CNc1cc(-c2ccc3ncn(C4CCNCC4)c3c2)ccn1)CN1CCc2ccccc2C1 (stereo not drawn) [Compound D241] | 101 to 1000 | 1000 to 10000 |
| CC(=O)N1CCC(n2cnc3ccc(-c4ccnc(NCC(O)CN5CCc6ccccc6C5)c4)cc32)CC1 (stereo not drawn) [Compound D242] | 101 to 1000 | 1000 to 10000 |
| CC(=O)N1CCC(n2ccc3cnc(-c4cccc(OCC(O)CN5CCc6ccccc6C5)c4)nc32)CC1 (stereo not drawn) [Compound D243] | 101 to 1000 | 1000 to 10000 |
| CN1CCN(C(=O)Cn2ccc3cnc(-c4cccc(OCC(O)CN5CCc6ccccc6C5)c4)nc32)CC1 (stereo not drawn) [Compound D244] | 101 to 1000 | 10000 to 40000 |
| CNC(=O)Cn1ccc2cnc(-c3ccnc(NCC(O)CN4CCc5ccccc5C4)c3)nc21 (stereo not drawn) [Compound D245] | 101 to 1000 | 1000 to 10000 |
| O=C(Cn1ccc2cnc(-c3ccnc(NCC(O)CN4CCc5ccccc5C4)c3)nc21)N1CCCCC1 (stereo not drawn) [Compound D246] | < 100 | 101 to 1000 |
| CN1CCN(C(=O)Cn2ccc3cnc(-c4ccnc(NCC(O)CN5CCc6ccccc6C5)c4)nc32)CC1 (stereo not drawn) [Compound D247] | < 100 | 1000 to 10000 |
| Cn1ncc2cnc(-c3cccc(OCC(O)CN4CCc5ccccc5C4)c3)cc21 (stereo not drawn) [Compound D248] | 101 to 1000 | 10000 to 40000 |
| O=C(Cn1cnc2ccc(-c3cccc(OCC(O)CN4CCc5ccccc5C4)c3)cc21)N1CCCCC1 (stereo not drawn) [Compound D249] | 101 to 1000 | 10000 to 40000 |
| CN1CCC(n2cnc3ccc(-c4ccnc(NCC(O)CN5CCc6ccccc6C5)c4)cc32)C1 (stereo not drawn) [Compound D250] | 101 to 1000 | 1000 to 10000 |
| OC(CNc1cc(-c2ccc3ncn(C4CCOCC4)c3c2)ccn1)CN1CCc2ccccc2C1 (stereo not drawn) [Compound D251] | 101 to 1000 | 1000 to 10000 |
| CN1CCC(n2cnc3ccc(-c4ccnc(NCC(O)CN5CCc6ccccc6C5)c4)cc32)CC1 (stereo not drawn) [Compound D252] | 101 to 1000 | 1000 to 10000 |
| OC(COc1cccc(-c2ncc3ccn(C4CCNCC4)c3n2)c1)CN1CCc2ccccc2C1 (stereo not drawn) [Compound D253] | 101 to 1000 | 1000 to 10000 |
| OC(CNc1cc(-c2ncc3ccn(C4CNC4)c3n2)ccn1)CN1CCc2ccccc2C1 (stereo not drawn) [Compound D254] | 101 to 1000 | 1000 to 10000 |
| OC(CNc1cc(-c2ncc3ccn(C4CCNCC4)c3n2)ccn1)CN1CCc2ccccc2C1 (stereo not drawn) [Compound D255] | < 100 | 101 to 1000 |
| CC(=O)N1CCC(n2ccc3cnc(-c4ccnc(NCC(O)CN5CCc6ccccc6C5)c4)nc32)CC1 (stereo not drawn) [Compound D256] | < 100 | 101 to 1000 |
| O[C@@H](COc1cccc(-c2cccc3cccnc23)c1)CN1CCc2ccccc2C1 [Compound D257] | 101 to 1000 | 1000 to 10000 |
| Cn1cc2ccc(-c3cccc(NCC(O)CN4CCc5ccccc5C4)c3)nc2n1 (stereo not drawn) [Compound D261] | 101 to 1000 | 10000 to 40000 |
| CNC(=O)Cn1cnc2ccc(-c3cccc(OCC(O)CN4CCc5ccccc5C4)c3)cc21 (stereo not drawn) [Compound D262] | 1000 to 10000 | 1000 to 10000 |
| O=C(Cn1cnc2ccc(-c3cccc(OCC(O)CN4CCc5ccccc5C4)c3)cc21)N1CCCC1 (stereo not drawn) [Compound D263] | 101 to 1000 | 10000 to 40000 |
| O=C(Cn1cnc2ccc(-c3cccc(OCC(O)CN4CCc5ccccc5C4)c3)cc21)N1CCOCC1 (stereo not drawn) [Compound D264] | 1000 to 10000 | 1000 to 10000 |
| OC(CNc1cc(-c2ccc3ncn(C4COC4)c3c2)ccn1)CN1CCc2ccccc2C1 (stereo not drawn) [Compound D265] | 101 to 1000 | 1000 to 10000 |
| Cc1ncc2ccc(-c3cccc(OCC(O)CN4CCc5ccccc5C4)c3)cn12 (stereo not drawn) [Compound D266] | 1000 to 10000 | 1000 to 10000 |
| OC(COc1cccc(-c2ccc3ncn(C4COC4)c3c2)c1)CN1CCc2ccccc2C1 (stereo not drawn) [Compound D269] | 101 to 1000 | 10000 to 40000 |
| CN1CCN(C(=O)Cn2cnc3ccc(-c4cccc(OCC(O)CN5CCc6ccccc6C5)c4)cc32)CC1 (stereo not drawn) [Compound D270] | 101 to 1000 | 10000 to 40000 |
| Cn1cnc2ccc(-c3cc(NCC(O)CN4CCc5ccccc5C4)n[nH]3)cc21 (stereo not drawn) [Compound D271] | 101 to 1000 | > 20000 |
| Cn1cnc2cc(-c3cc(NCC(O)CN4CCc5ccccc5C4)n[nH]3)ccc21 (stereo not drawn) [Compound D272] | 101 to 1000 | 1000 to 10000 |
| CC(=O)N(CC(O)CN1CCc2ccccc2C1)c1cccc(-c2ccc3ncn(C)c3c2)c1 (stereo not drawn) [Compound D273] | 101 to 1000 | 10000 to 40000 |
| Cn1cnc2ccc(-c3ccnc(NC[C@H](O)CN4CCc5ccccc5C4)c3)cc21 [Compound D275] | 101 to 1000 | 1000 to 10000 |
